Where a name gives a salt, the structure may show the parent alone.
Legend:
[1] = system: Canine aortic smooth muscle cells; test: Inducibility of cytoplasmic vacuolation in canine aortic smooth muscle cells; type: cell-based; design: key: Present: The term “present” in the tables means that cytoplasmic vacuolation was observed; Absent: the term “absent” means that cytoplasmic vacuolation was not observed; conditions: Concentration: 1.0 mmol/L, Treatment time: 24 hours
Protocol: As a test compound, the compound of Example 3, 9, 11, 12 or compounds of Comparative Examples 2 to 6 were used. Canine aortic smooth muscle cells (Canine Aortic Smooth Muscle Cells, supply source: Toyobo Co., Ltd.) or human aortic smooth muscle cells of (T/G HA-VSMG, supply source: ATCC) were treated with a test compound (1.0 or 1.2 mmol/L in concentration) for 24 hours or 2 weeks. The cells were stained with HE, immunohistochemically for LAMP-2 or toluidine blue, and thereafter the presence or absence of cytoplasmic vacuolation was determined by using an optical microscope.

[2] = system: mouse partial sciatic nerve ligation model (neuropathic pain); test: Mouse partial sciatic nerve ligation model (Seltzer model), von Frey test; type: in vivo; conditions: for persistence of analgesic action / time of strongest analgesic action after oral administration / dose from which a statistically significant analgesic action started: oral administration; for persistence of analgesic action / time of strongest analgesic action after oral administration: von Frey test at 1, 2, 3 h; for dose from which a statistically significant analgesic action started: von Frey test
Protocol: The mouse partial sciatic nerve ligation model was prepared in accordance with the method of Seltzer et al. (Malmberg et al., Pain, vol. 76, p. 215-222, 1998).
Slc: ICR mice (5 weeks old, male; from Japan SLC, Inc.) or Cr1: CD1 (ICR) mice (5 weeks old, male; from CHARLES RIVER LABORATORIES JAPAN, INC.) were anesthetized with sodium pentobarbital (70 mg/kg, intraperitoneal administration). The sciatic nerve at the femoral region of the right hind paw of each mouse was exposed and triply ligated tightly with silk suture of 8-0 (from NATSUME SEISAKUSHO CO., LTD.) under a stereomicroscope so that only half thickness of the nerve was trapped in the ligature. A group of mice thus treated was designated as a partial sciatic nerve ligation group. A group of mice whose sciatic nerve was just exposed and not ligated was designated as a sham surgery group.
Evaluation of neuropathic pain (hereinafter referred to as von Frey test) was performed as follows. Mice were conditioned for at least one hour in an acrylic cage for measurement (from NATSUME SEISAKUSHO CO. LTD. or SHINANO SEISAKUSHO) placed on a wire net. Thereafter, using a filament (from North Coast Medical or neuroscience) which exerted a pressure of 0.16 g, the mice were subjected to mechanical tactile stimulus by applying the filament to the plantar surface of the right hind paw 3 times, each for 3 seconds, with an interval of 3 seconds.
Seven days after the sciatic nerve ligation surgery, the compound of Example 1, 2, 3, 4, 5, 7, 8, 9, 10, 11, 12 or 13 (10 mg/kg for each of the compounds of Example 1, 2, 3, 4, 5, 8, 10 and 13, 0.01 to 1 mg/kg for the compound of Example 7, 0.01 to 10 mg/kg for the compound of Example 9; 0.001 to 0.1 mg/kg for the compound of Example 11; and 0.01 to 1 mg/kg for the compound of Example 12) or pregabalin as a positive control (10 mg/kg; Bosche Scientific) was dissolved in distilled water and orally administered to mice of the partial sciatic nerve ligation group. The groups of the mice in the partial sciatic nerve ligation mouse to which the compound of Example 1, 2, 3, 4, 5, 7, 8, 9, 10, 11, 12 or 13 was administered were designated as a “partial sciatic nerve ligation+the compound of Example 1” group; a “partial sciatic nerve ligation+the compound of Example 2” group; a “partial sciatic nerve ligation+the compound of Example 3” group; a “partial sciatic nerve ligation+the compound of Example 4” group; a “partial sciatic nerve ligation+the compound of Example 5” group; a “partial sciatic nerve ligation+the compound of Example 7” group; a “partial sciatic nerve ligation+the compound of Example 8” group; a “partial sciatic nerve ligation+the compound of Example 9” group; a “partial sciatic nerve ligation+the compound of Example 10” group; a “partial sciatic nerve ligation+the compound of Example 11” group; a “partial sciatic nerve ligation+the compound of Example 12” group; and a “partial sciatic nerve ligation+the compound of Example 13” group, respectively. The partial sciatic nerve ligation mouse group to which pregabalin was administered was designated as a “partial sciatic nerve ligation+pregabalin” group. A group wherein distilled water was orally administered to the mice of the partial sciatic nerve ligation group was designated as a “partial sciatic nerve ligation+distilled water” group. A group wherein distilled water was orally administered to the mice of the sham surgery group was designated as a “sham surgery+distilled water” group.
The von Frey test was carried out before oral administration of a test compound (pre-value), one hour, two hours, and three hours after the oral administration of a test compound.
Slc: ICR mice (5 weeks old, male; Japan SLC, Inc.) were anesthetized with sodium pentobarbital (70 mg/kg, intraperitoneal administration).

| SMILES | Inducibility of cytoplasmic vacuolation [1] | persistence of analgesic action [2] | time of strongest analgesic action after oral administration [2] | time the analgesic action lasted after oral administration ([2]; dose of 0.1 mg/kg) [h] | time the analgesic action lasted after oral administration ([2]; from a dose of 0.001 mg/kg) [h] | analgesic action in von Frey test (total score) ([2]; mouse, in vivo) | dose from which a statistically significant analgesic action started [2] [µg/kg] |
| --- | --- | --- | --- | --- | --- | --- | --- |
| CC(C)n1ccnc1CCC(=O)N1CCC(N(C)C)CC1 [Comparative Example 6, 1-(4-(dimethylamino)piperidin-1-yl)-3-(1-isopropyl-1H-imidazol-2-yl)propan-1-one hydrochloride] | Present | tended to decrease 2 hours and 3 hours later | one |  |  |  |  |
| CN(C)C1CCN(C(=O)C[C@H](O)c2nccn2C)CC1 [Example 11, (S)-1-(4-(dimethylamino)piperidin-1-yl)-3-hydroxy-3-(1-methyl-1H-imidazol-2-yl)propan-1-one] | Absent |  |  | 3 | 2 | statistically significant analgesic action | 1 |
| CN(C)C1CCN(C(=O)CCc2nccn2C)CC1 [Comparative Example 1, 1-(4-(dimethylamino)piperidin-1-yl)-3-(1-methyl-1H-imidazol-2-yl)propan-1-one hydrochloride] |  | tended to decrease 2 hours and 3 hours later | one |  |  |  | 10 |
